Key:
[1] = target: T1, human recombinant JAK2 protein (Homo sapiens, UniProt O60674); assay: JAK2 Inhibition Assay (HTRF kinase assay); format: biochemical; details: human recombinant JAK2, 2.5 μM ATP substrate solution
T1 construct: purchased Carna Biosciences 08-045
Description: The effect of the compounds of the present invention on the enzymatic activity of JAK2 was assessed by detecting the substrate phosphorylation level in a kinase reaction using the HTRF kinase assay detection kit (Cisbio, Cat. No. 62TK0PEC).
(§1) The experimental method is generally described below:
A reaction buffer contained the following components: an enzyme reaction buffer (1×), 5 mM MgCl2, 1 mM DTT and 0.01% Brij35 from the kit. A JAK2 kinase solution contained a human recombinant JAK2 protein (Carna Biosciences, 08-045) diluted in the reaction buffer to 0.15 ng/μL. A substrate reaction solution contained 2.5 μM ATP and 0.25 μM of a biotinylated tyrosine kinase substrate from the kit in the reaction buffer. A detection solution contained 0.1 ng/μL Eu^3+-labeled cage antibody (Cisbio, 61T66KLB) and 12.5 nM streptavidin-labeled XL665 (Cisbio, 610SAXLB) in the reaction buffer.
(§2) The test compound was dissolved in DMSO to 10 μM, followed by a serial 4-fold dilution with DMSO to a minimum concentration of 0.061 nM. Each concentration was further diluted 40-fold with the reaction buffer.
To a 384-well assay plate (Corning, 3674) were added 4 μL of compound solution and 2 μL of JAK2 kinase solution. The mixture was mixed and incubated at room temperature for 15 minutes, and then added with 4 μL of the substrate reaction solution. After further incubation at room temperature for 30 minutes, the reaction mixture was added with an equal volume of 10 μL detection solution and allowed to stand at room temperature for 30 minutes. An Envision plate reader (Perkin Elmer) was then used to measure the progress of the reaction at 620 nm and 665 nm. The ratio of absorbances at 665 nm and 620 nm was positively correlated with the degree of substrate phosphorylation, therefore the activity of JAK2 kinase was detected. In the experiment, the group without JAK2 kinase protein was treated as the 100% inhibition group, and the group with JAK2 kinase protein but not the test compound was treated as the 0% inhibition group. The percentage of inhibition on JAK2 kinase activity by the test compound was calculated using the following formula: Percentage of inhibition=100−100*(ratiocompound−ratio100% inhibition)/(ratio0% inhibition−ratio100% inhibition)
The IC50 value of the test compound was calculated from 8 concentration points using the XLfit softwere (ID Business Solutions Ltd., UK) by the following formula: Y=Bottom+(Top−Bottom)/(1+10^((log IC50−X)×slope factor))
Where Y was the percentage of inhibition, X was the logarithm of the concentration of the test compound. Bottom was the bottom plateau value of the S-shaped curve, Top was the top plateau value of the S-shaped curve, and slope factor was the slope coefficient of the curve.

[2] = test system: IL-12-induced IFN-γ secretion in NK92 cells; assay: Inhibition of IL-12-induced IFN-γ Secretion in NK92 Cells (ELISA); format: cell-based, human; details: Homo sapiens, 24 hours incubation, 8 concentration points, read-out: IC50 (NK92_IL12/IFNγ)
Description: Inhibition of IL-12-induced IFN-γ Secretion in NK92 Cells
The effect of the compounds of the present invention on IFN-γ secretion induced by IL-12 in NK92 cells was evaluated by an enzyme-linked immunosorbent assay (ELISA).
IL-12 receptor is mainly expressed in activated T-cells, NK cells (NK92 is a NK cell line), DC cells, and B-cells. When binding to IL-12, it activates JAK2/TYK2 signal transduction pathway within NK cells and T lymphocytes, thereby inducing secretion of IFN-γ.
as §1
The test compound was dissolved in DMSO to 2.5 mM, followed by a serial 4-fold dilution with DMSO to a minimum concentration of […]. Each concentration was further diluted 50-fold with an FBS-free MEMα medium (Gibco, 12561-056).
NK92 cells (Nanjing Cobioer, CBP60980) were cultured in a complete MEMα medium containing 12.5% FBS (Ausbian, VS500T), 12.5% horse serum (Gibco, 16050-122), 0.02 mM folic acid (Sigma, F8758), 0.2 mM inositol (Sigma, 17850), 0.55 mM β-mercaptoethanol (Gibco, 21985-023), 200 U/mL IL-2 (R&D Systems, 202-1L), and 100 U/mL penicillin (Thermofisher, 15140122). When covering 80-90% of the culture container surface, the cells were dispersed and plated on a 96-well plate (Thermofisher, 167425) with 100,000 cells per well (80 μL of the complete MEMα medium without IL-2). The 96-well plate was then incubated overnight in a 37° C./5% CO2 incubator.
After overnight incubation, 10 μL of the test compound and 10 μL of 50 ng/mL IL-12 (R & D Systems, 219-1L) were added to each well and mix gently, and the 96-well plate was incubated in the 37° C./5% CO2 incubator for additional 24 hours. The plate as centrifuged at 800 rpm for 10 minutes at room temperature and 50 μL of the supernatant from each well was transferred to another 96-well plate (Sigma, CLS3695) coated with anti-IFN-γ antibody. The amount of IFN-γ secretion was detected following the instruction from the Human IFN-γ DuoSet ELISA kit (R & D Systems, DY285B). In the experiment, the group with IL-12 and the test compound being replaced with the MEMα medium was the non-stimulated control group (100% inhibition), and the group with IL-12 and 0.2% DMSO was the stimulated group (0% inhibition). The percentage of inhibition on IL-12 induced IFN-γ secretion in NK-92 cells by the test compound was calculated using the following formula: Percentage of inhibition=100−100*(signalcompound−signalnon-stimulated control)/(signalstimulated control−signalnon-stimulated control)
The IC50 value of the test compound was calculated front 8 concentration points using the XLfit software (ID Business Solutions Ltd., UK) by the following formula: Y=Bottom+(Top−Bottom)/(1+10^((log IC50−X)×slope factor))
(§3) Where Y was the percentage of inhibition, X was the logarithm of the concentration of the test compound, Bottom was the bottom plateau value of the S-shaped curve, Top was the top plateau value of the S-shaped curve, and slope factor was the slope coefficient of the curve.

[3] = target: T2, human recombinant TYK2 protein (Homo sapiens, UniProt P29597); assay: TYK2 Inhibition Assay (HTRF kinase assay); format: biochemical; details: human recombinant TYK2, 11.25 μM ATP substrate solution
T2 construct: purchased Carna Biosciences 08-147
T2 sequence (P29597 871-1187 limits assumed): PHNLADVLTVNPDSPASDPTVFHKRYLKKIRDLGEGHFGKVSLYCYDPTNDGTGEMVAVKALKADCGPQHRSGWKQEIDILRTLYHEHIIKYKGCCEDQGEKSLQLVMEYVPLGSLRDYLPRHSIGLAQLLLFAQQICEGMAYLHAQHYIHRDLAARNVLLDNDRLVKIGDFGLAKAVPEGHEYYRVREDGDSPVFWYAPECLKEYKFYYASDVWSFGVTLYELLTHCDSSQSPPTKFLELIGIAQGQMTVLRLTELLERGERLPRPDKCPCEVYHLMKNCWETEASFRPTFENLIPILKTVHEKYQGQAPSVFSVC
Description: The effect of the compounds of the present invention on the enzymatic activity of TYK2 was assessed by detecting the substrate phosphorylation level in a kinase reaction using the HTRF kinase assay detection kit (Cisbio, Cat. No. 62TK0PEC).
as §1
A reaction buffer contained the following components: an enzyme reaction buffer (1×), 5 mM MgCl2 mM DTT and 0.01% Brij35 from the kit. A TYK2 kinase solution contained human recombinant TYK2 protein (Carna Biosciences, 08-147) diluted in the reaction buffer to 0.25 ng/μL. A substrate reaction solution contained 11.25 μM ATP and 0.5 μM of a biotinylated tyrosine kinase substrate from the kit in the reaction buffer. A detection solution contained 0.1 ng/μL Eu^3+-labeled cage antibody (Cisbio, 61T66KLB) and 25 nM streptavidin-1 added XL665 (Cisbio, 610SAXLB) in the reaction buffer.
as §2
To a 384-well assay plate (Corning, 3674) were added 4 μL of compound solution and 2 μL of TYK2 kinase solution. The mixture was mixed and incubated at room temperature for 15 minutes, and then added with 4 μL of the substrate reaction solution. After further incubation at room temperature for 40 minutes, the reaction mixture was added with an equal volume of 10 μL detection solution and allowed to stand at room temperature for 30 minutes. An Envision plate reader (Perkin Elmer) was then used to measure the progress of the reaction at 620 nm and 665 nm. The ratio of absorbances at 665 nm and 620 nm was positively correlated with the degree of substrate phosphorylation, therefore the activity of TYK2 kinase was detected. In the experiment, the group without TYK2 kinase protein was treated as the 100% inhibition group, and the group with TYK2 kinase protein but not the test compound was treated as the 0% inhibition group. The percentage of inhibition on TYK2 kinase activity by the test, compound was calculated using the following formula: Percentage of inhibition=100−100*(ratiocompound−ratio100% inhibition)/(ratio0% inhibition−ratio100% inhibition)
The IC50 value of the test compound was calculated from 8 concentration points using the XLfit software (ID Business Solutions Ltd., UK) by the following formula: Y=Bottom+(Top−Bottom)/(1+10^((log IC50−X)slope factor))
as §3

T1 sequence (O60674 826-1132 limits assumed): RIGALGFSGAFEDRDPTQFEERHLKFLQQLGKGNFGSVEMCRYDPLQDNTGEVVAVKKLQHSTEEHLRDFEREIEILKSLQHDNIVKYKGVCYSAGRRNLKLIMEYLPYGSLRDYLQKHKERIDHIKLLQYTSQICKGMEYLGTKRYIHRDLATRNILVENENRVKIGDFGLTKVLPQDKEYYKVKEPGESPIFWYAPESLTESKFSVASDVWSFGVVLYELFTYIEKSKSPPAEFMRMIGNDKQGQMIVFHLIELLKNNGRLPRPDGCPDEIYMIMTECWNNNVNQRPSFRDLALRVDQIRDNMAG

Row | Compound | IC50 [1] | IC50 [2] | IC50 [3]
1 | Cc1cnc(Nc2cnn(C)c2)nc1N1C[C@@H]2CN(C(=O)[C@@H]3CC3(F)F)C[C@]2(C)C1 (racemic) [Compound 72] | 4.5 nM | 824 nM | 3.4 nM
2 | Cc1cnc(Nc2cnn(C)c2)nc1N1C[C@@H]2CN(Cc3ccno3)C[C@]2(C)C1 (racemic) [Compound 73, cis-4-(5-(isoxazol-5-ylmethyl)-3a-methylhexahydropyrrolo[3,4-c]pyrrol-2(1H)-yl)-5-methyl-N-(1-methyl-1H-pyrazol-4-yl)pyrimidin-2-amine] | 6 nM | 278 nM | 3.3 nM
3 | Cn1cc(Nc2ncc(Cl)c(N3C[C@@H]4CN(Cc5ccno5)C[C@]4(C)C3)n2)cn1 (racemic) [Compound 74, cis-5-chloro-4-(5-(isoxazol-5-ylmethyl)-3a-methylhexahydropyrrolo[3,4-c]pyrrol-2(1H)-yl)-N-(1-methyl-1H-pyrazol-4-yl)pyrimidin-2-amine] | 2.4 nM | 209 nM | 1.6 nM
4 | Cn1cc(Nc2ncc(Cl)c(N3C[C@@]4(C)CN(CC#N)C(=O)[C@@]4(C)C3)n2)cn1 (racemic) [Compound 92, cis-2-(5-(5-Chloro-2-((1-methyl-1H-pyrazol-4-yl)amino)pyrimidin-4-yl)-3a,6a-dimethyl-1-oxohexahydropyrrolo[3,4-c]pyrrol-2(1H)-yl)acetonitrile] | 4.1 nM | 398 nM | 1.1 nM
5 | Cn1cc(Nc2ncc(Cl)c(N3C[C@H]4CN(C(=O)CC#N)C[C@]4(C)C3)n2)cn1 (racemic) [Compound 100, trans-3-(5-(5-chloro-2((1-methyl-1H-pyrazol-4-yl)amino)pyrimidin-4-yl)-3a-methylhexahydropyrrolo[3,4-c]pyrrol-2(1H)-yl)-3-oxopropanenitrile] | 5 nM | 763 nM | 2.2 nM
6 | Cn1cc(Nc2nccc(N3C[C@@H]4CN(Cc5ccno5)C[C@]4(C)C3)n2)cn1 (relative stereo) [Compound 69, cis-4-(5-(isoxazol-5-ylmethyl)-3a-methylhexahydropyrrolo[3,4-c]pyrrol-2(1H)-yl)-N-(1-methyl-1H-pyrazol-4-yl)pyrimidin-2-amine] | 156 nM | 7060 nM | 98 nM
7 | CCNC(=O)c1ccc(Nc2ncc(F)c(N3C[C@]4(C)CN(C(=O)C5CC5(F)F)C[C@]4(C)C3)n2)cc1 (stereo partly drawn) [Compound 10, 4-((4-((3aR,6aS)-5-(2,2-difluorocyclopropane-1-carbonyl)-3a,6a-dimethylhexahydropyrrolo[3,4-c]pyrrol-2(IH)-yl)-5-fluoropyrimidin-2-yl)amino)-N-ethylbenzamide] | 15 nM | 3800 nM | 2.4 nM
8 | Cn1cc(Nc2ncc(F)c(N3C[C@]4(C)CN(C(=O)C5CC5)C[C@]4(C)C3)n2)cn1 [Compound 11] | 137 nM | 6770 nM | 21 nM
9 | Cn1cc(Nc2ncc(Cl)c(N3C[C@]4(C)CN(C(=O)C5CC5)C[C@]4(C)C3)n2)cn1 [Compound 12, ((3aR,6aS)-5-(5-chloro-2-((1-methyl-1H-pyrazol-4-yl)amino)pyrimidin-4-yl)-3a,6a-dimethylhexahydropyrrolo[3,4-c]pyrrol-2(1H)-yl)(cyclopropyl)methanone] | 4.2 nM | 419 nM | 1.1 nM
10 | C[C@@]12CN(C(=O)C3CC3)C[C@]1(C)CN(c1nc(Nc3cnn(CCO)c3)ncc1F)C2 [Compound 13] | 170 nM | 4140 nM | 8.5 nM
11 | Cn1cc(Nc2ncc(F)c(N3C[C@]4(C)CN(CC(F)F)C[C@]4(C)C3)n2)cn1 [Compound 14, 4-((3aR,6aS)-5-(2,2-difluoroethyl)-3a,6a-dimethylhexahydropyrrolo[3,4-c]pyrrol-2(1H)-yl)-5-fluoro-N-(1-methyl-1H-pyrazol-4-yl)pyrimidin-2-amine] | 68 nM | 1320 nM | 14 nM

Source: patent US12448382B2, “Heterocyclic compounds for mediating tyrosine kinase 2 activity” (GUANGZHOU INNOCARE PHARMA TECH CO., LTD., priority 2019, dated 2025)
